{"source": "patent US10961309B2", "about": "“Reducing systemic regulatory T cell levels or activity for treatment of disease and injury of the CNS” (Yeda Research and Development Co. Ltd, priority 2014, dated 2021)", "format_in_all_cases": "in vivo, mouse", "key": {"[1]": {"test_system": "splenocytes (CD4+Foxp3+ Tregs, CD4+ IFN-γ+ T cells)", "assay": "Flow cytometry of splenocytes", "method": "(§1) Mice were transcardially perfused with PBS, and tissues were treated as previously described (Baruch et al, 2013). Brains were dissected and the different brain regions were removed under a dissecting microscope (Stemi DV4; Zeiss) in PBS, and tissues were dissociated using the gentleMACS™ dissociator (Miltenyi Biotec). Choroid plexus tissues were isolated from the lateral, third and fourth ventricles of the brain, incubated at 37° C. for 45 min in PBS (with Ca^2+/Mg^2+) containing 400 U/ml collagenase type IV (Worthington Biochemical Corporation), and then manually homogenized by pipetting. Spleens were mashed with the plunger of a syringe and treated with ACK (ammonium chloride potassium) lysing buffer to remove erythrocytes. In all cases, samples were stained according to the manufacturers' protocols. All samples were filtered through a 70 μm nylon mesh, and blocked with anti-Fc CD16/32 (1:100; BD Biosciences). For intracellular staining of IFN-γ, the cells were incubated with […] (10 ng/ml; Sigma-Aldrich) and ionomycin (250 ng/ml; Sigma-Aldrich) for 6 h, and Brefeldin-A (10 μg/ml; Sigma-Aldrich) was added for the last 4 h. Intracellular labeling of cytokines was done with BD Cytofix/Cytoperm™ Plus fixation/permeabilization kit (cat. no. 555028). For Treg staining, an eBioscience FoxP3 staining buffer set (cat. no. 00-5523-00) was used. The following fluorochrome-labeled monoclonal antibodies were purchased from BD Pharmingen, BioLegend, R&D Systems, or eBiosciences, and used according to the manufacturers' protocols: PE or Alexa Fluor 450-conjugated anti-CD4; PE-conjugated anti-CD25; PerCP-Cy5.5-conjugated anti-CD45; FITC-conjugated anti-TCRβ; APC-conjugated anti-IFN-γ; APC-conjugated anti-FoxP3; Brilliant-violet-conjugated anti-CD45. Cells were analyzed on an LSRII cytometer (BD Biosciences) using FlowJo software. In each experiment, relevant negative control groups, positive controls, and single stained samples for each tissue were used to identify the populations of interest and to exclude other populations."}, "[2]": {"test_system": "hippocampal cytokine and neurotropic factor mRNA", "assay": "Brain parenchyma / hippocampus mRNA expression by RT-qPCR", "method": "(§2) Total RNA of the hippocampal dentate gyrus (DG) was extracted with TRI Reagent (Molecular Research Center) and purified from the lysates using an RNeasy Kit (Qiagen). Total RNA of the choroid plexus was extracted using an RNA MicroPrep Kit (Zymo Research). mRNA (1 μg) was converted into cDNA using a High Capacity cDNA Reverse Transcription Kit (Applied Biosystems). The expression of specific mRNAs was assayed using fluorescence-based quantitative real-time PCR (RT-qPCR). RT-qPCR reactions were performed using Fast-SYBR PCR Master Mix (Applied Biosystems). Quantification reactions were performed in triplicate for each sample using the standard curve method. Peptidylprolyl isomerase A (ppia) was chosen as a reference (housekeeping) gene. The amplification cycles were 95° C. for 5 s, 60° C. for 20 s, and 72° C. for 15 s. At the end of the assay, a melting curve was constructed to evaluate the specificity of the reaction. For ifn-γ and ppia gene analysis, the cDNA was pre-amplified in 14 PCR cycles with non-random PCR primers, thereby increasing the sensitivity of the subsequent real-time PCR analysis, according to the manufacturer's protocol (PreAmp Master Mix Kit; Applied Biosystems). mRNA expression was determined using TaqMan RT-qPCR, according to the manufacturer's instructions (Applied Biosystems). All RT-qPCR reactions were performed and analyzed using StepOne software V2.2.2 (Applied Biosystems). The following TaqMan Assays-on-Demand™ probes were used: Mm02342430_g1 (ppia) and Mm01168134_m1 (ifn-γ).\nFor all other genes examined, the following primers were used: […]"}, "[3]": {"test_system": "CD11bhigh/CD45high mo-MΦ, CD4+ T cells, Foxp3+ Tregs in the brain", "assay": "Flow cytometry of brain parenchyma / hippocampus", "method": "as §1"}, "[4]": {"test_system": "choroid plexus leukocyte trafficking molecules (icam1, cxcl10, ccl2) and ifn-γ", "assay": "Choroid plexus (CP) mRNA expression by RT-qPCR", "method": "as §2, with “At the end of the assay, a melting curve was constructed to evaluate the specificity of the reaction.” left out, “The following TaqMan Assays-on-Demand™ probes were used: Mm02342430_g1 (ppia) and Mm01168134_m1 (ifn-γ).” left out"}, "[5]": {"test_system": "5XFAD AD-Tg mice", "assay": "Morris water maze (MWM)", "method": "Mice were given three trials per day, for 4 consecutive days, to learn to find a hidden platform located 1.5 cm below the water surface in a pool (1.1 m in diameter). The water temperature was kept between 21-22° C. Water was made opaque with milk powder. Within the testing room, only distal visual shape and object cues were available to the mice to aid in location of the submerged platform. The escape latency, i.e., the time required to find and climb onto the platform, was recorded for up to 60 s. Each mouse was allowed to remain on the platform for 15 s and was then removed from the maze to its home cage. […] The inter-trial interval for each mouse was 10 min. On day 5, the platform was removed, and mice were given a single trial lasting 60 s without available escape. On days 6 and 7, the platform was placed in the quadrant opposite the original training quadrant, and the mouse was retrained for three sessions each day. Data were recorded using the EthoVision V7.1 automated tracking system (Noldus Information Technology). Statistical analysis was performed using analysis of variance (ANOVA) and the Bonferroni post-hoc test. All MWM testing was performed between 10 a.m. and 5 p.m. during the lights-off phase."}, "[6]": {"settings": "weekly-GA vs untreated AD-Tg mice, age 6 m"}, "[7]": {"settings": "AD-Tg/DTR+ mice, 3 weeks after last DTx injection"}}, "note": "Entries after “also recorded” stand apart in the source; their conditions may differ."}
{"compound": "CC1=C(/C=C/C(C)=C/C=C/C(C)=C/C(=O)O)C(C)(C)CCC1", "note": "[ATRA, All-trans retinoic acid]", "values": [{"measurement": "splenocyte frequencies of Foxp3+CD25+ Tregs", "setting": "[1]; ATRA 8 mg/kg/d i.p. every other day 1 week vs vehicle (DMSO), 5-month 5XFAD AD-Tg mice", "value": "significantly higher; also recorded: elevation"}]}
{"compound": "Glatiramer acetate [GA]", "values": [{"measurement": "neuroinflammation", "setting": "[2]; weekly-GA 100 μg s.c. over 4 weeks, 5XFAD AD-Tg mice, hippocampus", "value": "reduced neuroinflammation"}, {"measurement": "hippocampal mRNA of anti-inflammatory cytokines IL-10 and TGF-β", "setting": "[2]; [6]", "value": "elevation"}, {"measurement": "hippocampal mRNA of neurotropic factors IGF-1 and BDNF", "setting": "[2]; [6]", "value": "elevation"}, {"measurement": "hippocampal mRNA of pro-inflammatory cytokines TNF-α, IL-1β and IL-12p40", "setting": "[2]; [6]", "value": "reduced expression"}, {"measurement": "numbers of CD11bhighCD45high-expressing cells in the hippocampus", "setting": "[3]; weekly-GA, AD-Tg non-chimeric mice, 2nd week of regimen", "value": "increased numbers"}, {"measurement": "CP epithelial expression of leukocyte trafficking molecules (icam1, cxcl10, ccl2)", "setting": "[4]; weekly-GA, AD-Tg mice, end of 1st or 4th week", "value": "upregulated epithelial expression of leukocyte trafficking molecules"}, {"measurement": "splenocyte Foxp3+ Treg levels", "setting": "[1]; weekly-GA, 5XFAD AD-Tg mice, end of 1st week of regimen", "value": "reduced"}, {"measurement": "spatial learning/memory performance in acquisition, probe and reversal phases of the MWM", "setting": "[5]; weekly-GA vs vehicle (PBS), AD-Tg mice, age 6 m", "value": "better spatial learning/memory performance"}, {"measurement": "cognitive performance", "setting": "[5]; weekly-GA, 5XFAD AD-Tg mice, MWM 1 week, RAWM 1 and 2 months after last injection", "value": "improved cognitive performance"}]}
{"compound": "Diphtheria toxin [DTx]", "values": [{"measurement": "mRNA expression levels of pro-inflammatory cytokines (il-12p40, tnf-α)", "setting": "[2]; AD-Tg/DTR+ mice, brain parenchyma, 3 weeks after last DTx injection", "value": "reduced mRNA expression levels"}, {"measurement": "foxp3 and il10 mRNA expression", "setting": "[2]; AD-Tg/DTR+ mice, hippocampus, 3 weeks after last DTx injection", "value": "increased expression"}, {"measurement": "Foxp3+ Tregs among CD4+ T cells in the brain", "setting": "[3]; [7]", "value": "marked enrichment"}, {"measurement": "numbers of CD45high/CD11bhigh mo-MΦ and CD4+ T cells in brain parenchyma", "setting": "[3]; [7]", "value": "increased numbers; also recorded: elevated numbers"}, {"measurement": "CP mRNA expression of leukocyte trafficking molecules (icam1, cxcl10, ccl2)", "setting": "[4]; AD-Tg/DTR+ vs DTx-treated AD-Tg/DTR− littermates, 1 day after last DTx injection", "value": "elevated mRNA expression"}, {"measurement": "spatial learning and memory (MWM)", "setting": "[5]; AD-Tg/DTR+ vs DTx-treated AD-Tg/DTR− mice, 3 weeks after last DTx injection", "value": "better spatial learning/memory performance; also recorded: significant improvement in spatial learning and memory"}]}
